From ChEMBL document CHEMBL4610038, “The synthesis of trifluoromethylated N-nitroaryl-2-amino-1,3-dichloropropane derivatives and their evaluation as potential anti-cancer agents” (Bioorg Med Chem Lett, 2020)

Experiments:
[1] = Cytotoxicity against human HK1 cells assessed as reduction in cell viability; format: functional, cell-based; conditions: HK-1
[2] = Cytotoxicity against human MCF10A cells assessed as cell viability at 100 uM relative to control; format: cell-based, MCF-10A; conditions: read-out: Activity
SH-SY5Y [3] = experiment: Cytotoxicity against human SH-SY5Y cells assessed as reduction in cell viability; format: functional, cell-based
SUNE1 [4] = experiment: Cytotoxicity against human SUNE1 cells assessed as reduction in cell viability; format: functional, cell-based
SW1990 [5] = experiment: Cytotoxicity against human SW1990 cells assessed as reduction in cell viability; format: functional, cell-based
T47D [6] = experiment: Cytotoxicity against human T47D cells assessed as reduction in cell viability; format: functional, cell-based
[7] = Cytotoxicity against human MRC5 cells assessed as cell viability at 100 uM relative to control; format: cell-based; conditions: read-out: Activity
SW48 [8] = experiment: Cytotoxicity against human SW48 cells assessed as reduction in cell viability; format: functional, cell-based
MDA-MB-231 [9] = experiment: Cytotoxicity against human MDA-MB-231 cells assessed as cell viability at 100 uM relative to control; format: functional; conditions: read-out: Activity
HCT-116 [10] = experiment: Cytotoxicity against human HCT116 cells assessed as cell viability at 100 uM relative to control; format: functional; conditions: read-out: Activity
CNE [11] = experiment: Cytotoxicity against human CNE1 cells assessed as cell viability at 100 uM relative to control; format: functional; conditions: read-out: Activity
SW1990 [12] = experiment: Cytotoxicity against human SW1990 cells assessed as cell viability at 100 uM relative to control; format: functional; conditions: read-out: Activity
Caco-2 [13] = experiment: Cytotoxicity against human Caco2 cells assessed as reduction in cell viability; format: functional, cell-based
Caco-2 [14] = experiment: Cytotoxicity against human Caco2 cells assessed as cell viability at 100 uM relative to control; format: functional; conditions: read-out: Activity
SW48 [15] = experiment: Cytotoxicity against human SW48 cells assessed as cell viability at 100 uM relative to control; format: functional; conditions: read-out: Activity
T47D [16] = experiment: Cytotoxicity against human T47D cells assessed as cell viability at 100 uM relative to control; format: functional; conditions: read-out: Activity
[17] = Cytotoxicity against human HK1 cells assessed as cell viability at 100 uM relative to control; format: functional; conditions: HK-1, read-out: Activity
HCT-116 [18] = experiment: Cytotoxicity against human HCT116 cells assessed as reduction in cell viability; format: functional, cell-based
NCI-H1299 [19] = experiment: Cytotoxicity against human H1299 cells assessed as reduction in cell viability; format: functional, cell-based
SK-BR-3 [20] = experiment: Cytotoxicity against human SKBR3 cells assessed as reduction in cell viability; format: functional, cell-based
HT-29 [21] = experiment: Cytotoxicity against human HT-29 cells assessed as reduction in cell viability; format: functional, cell-based
CNE [22] = experiment: Cytotoxicity against human CNE1 cells assessed as reduction in cell viability; format: functional, cell-based
MDA-MB-231 [23] = experiment: Cytotoxicity against human MDA-MB-231 cells assessed as reduction in cell viability; format: functional, cell-based
MCF-10A = experiment: Cytotoxicity against human MCF10A cells assessed as reduction in cell viability; format: cell-based
ASPC1 [24] = experiment: Cytotoxicity against human AsPC1 cells assessed as reduction in cell viability; format: functional, cell-based
BXPC-3 [25] = experiment: Cytotoxicity against human BxPC3 cells assessed as cell viability at 100 uM relative to control; format: functional; conditions: read-out: Activity
MCF7 [26] = experiment: Cytotoxicity against human MCF7 cells assessed as cell viability at 100 uM relative to control; format: functional; conditions: read-out: Activity
HT-29 [27] = experiment: Cytotoxicity against human HT-29 cells assessed as cell viability at 100 uM relative to control; format: functional; conditions: read-out: Activity
A549 [28] = experiment: Cytotoxicity against human A549 cells assessed as cell viability at 100 uM relative to control; format: functional; conditions: read-out: Activity
BXPC-3 [29] = experiment: Cytotoxicity against human BxPC3 cells assessed as reduction in cell viability; format: functional, cell-based
MCF7 [30] = experiment: Cytotoxicity against human MCF7 cells assessed as reduction in cell viability; format: functional, cell-based
SK-BR-3 [31] = experiment: Cytotoxicity against human SKBR3 cells assessed as cell viability at 100 uM relative to control; format: functional; conditions: read-out: Activity
SH-SY5Y [32] = experiment: Cytotoxicity against human SH-SY5Y cells assessed as cell viability at 100 uM relative to control; format: functional; conditions: read-out: Activity
ASPC1 [33] = experiment: Cytotoxicity against human AsPC1 cells assessed as cell viability at 100 uM relative to control; format: functional; conditions: read-out: Activity
NCI-H1299 [34] = experiment: Cytotoxicity against human H1299 cells assessed as cell viability at 100 uM relative to control; format: functional; conditions: read-out: Activity
A549 [35] = experiment: Cytotoxicity against human A549 cells assessed as reduction in cell viability; format: functional, cell-based
MRC5 = experiment: Cytotoxicity against human MRC5 cells assessed as reduction in cell viability; format: cell-based
SUNE1 [36] = experiment: Cytotoxicity against human SUNE1 cells assessed as cell viability at 100 uM relative to control; format: functional; conditions: read-out: Activity
MDA-MB-468 [37] = experiment: Cytotoxicity against human MDA-MB-468 cells assessed as cell viability at 100 uM relative to control; format: functional; conditions: read-out: Activity
MDA-MB-468 [38] = experiment: Cytotoxicity against human MDA-MB-468 cells assessed as reduction in cell viability; format: functional, cell-based

Row | SMILES | IC50 [1] | viability at 100 µM [2] | IC50 (SH-SY5Y [3]) | IC50 (SUNE1 [4]) | IC50 (SW1990 [5]) | IC50 (T47D [6]) | viability at 100 µM [7] | IC50 (SW48 [8]) | viability at 100 µM (MDA-MB-231 [9]) | viability at 100 µM (HCT-116 [10]) | viability at 100 µM (CNE [11]) | viability at 100 µM (SW1990 [12]) | IC50 (Caco-2 [13]) | viability at 100 µM (Caco-2 [14]) | viability at 100 µM (SW48 [15]) | viability at 100 µM (T47D [16]) | viability at 100 µM [17] | IC50 (HCT-116 [18]) | IC50 (NCI-H1299 [19]) | IC50 (SK-BR-3 [20]) | also measured
1 | O=[N+]([O-])c1ccc(NC(CCl)CCl)c(C(F)(F)F)c1 | > 100 µM | 47.5% | 33.7 µM | 55.1 µM | 33.3 µM | 34.7 µM | 22.2% | 33.4 µM | 31.8% | 24.5% | 12.4% | 28.6% | 10.1 µM | 9.5% | 26.5% | 24.3% | 61.4% | 33.1 µM | 49.1 µM | > 100 µM | IC50 (HT-29 [21]): 92.1 µM; IC50 (CNE [22]): 15.3 µM; IC50 (MDA-MB-231 [23]): 42.4 µM; IC50 (MCF-10A): 81 µM; IC50 (ASPC1 [24]): 85.1 µM; viability at 100 µM (BXPC-3 [25]): 23.2%; viability at 100 µM (MCF7 [26]): 10.5%; viability at 100 µM (HT-29 [27]): 45.3%; viability at 100 µM (A549 [28]): 37.1%; IC50 (BXPC-3 [29]): 52.1 µM; IC50 (MCF7 [30]): 12.1 µM; viability at 100 µM (SK-BR-3 [31]): 55.6%; viability at 100 µM (SH-SY5Y [32]): 21.6%; viability at 100 µM (ASPC1 [33]): 40.2%; viability at 100 µM (NCI-H1299 [34]): 38.1%; IC50 (A549 [35]): 57.7 µM; IC50 (MRC5): 31 µM; viability at 100 µM (SUNE1 [36]): 38.6%; viability at 100 µM (MDA-MB-468 [37]): 20.4%; IC50 (MDA-MB-468 [38]): 52.1 µM
2 | O=[N+]([O-])c1cc(C(F)(F)F)ccc1NC(CCl)CCl | > 100 µM | 77.1% | 62.5 µM | 92.9 µM | 92.1 µM | 35.1 µM | 29.9% | 62.3 µM | 32.1% | 45.1% | 27.1% | 42.1% | 39.9 µM | 21.9% | 32.8% | 25.6% | 59.7% | 82.1 µM | > 100 µM | 67.8 µM | IC50 (HT-29 [21]): 87.8 µM; IC50 (CNE [22]): 32.1 µM; IC50 (MDA-MB-231 [23]): 54.5 µM; IC50 (MCF-10A): > 100 µM; IC50 (ASPC1 [24]): > 100 µM; viability at 100 µM (BXPC-3 [25]): 62.9%; viability at 100 µM (MCF7 [26]): 21.4%; viability at 100 µM (HT-29 [27]): 47.1%; viability at 100 µM (A549 [28]): 24.6%; IC50 (BXPC-3 [29]): > 100 µM; IC50 (MCF7 [30]): 34.3 µM; viability at 100 µM (SK-BR-3 [31]): 38.5%; viability at 100 µM (SH-SY5Y [32]): 33.7%; viability at 100 µM (ASPC1 [33]): 51.1%; viability at 100 µM (NCI-H1299 [34]): 52.4%; IC50 (A549 [35]): 33.3 µM; IC50 (MRC5): 62.1 µM; viability at 100 µM (SUNE1 [36]): 42.3%; viability at 100 µM (MDA-MB-468 [37]): 65.1%; IC50 (MDA-MB-468 [38]): > 100 µM
3 | O=[N+]([O-])c1ccc(NC(CO)CO)c([N+](=O)[O-])c1 | > 100 µM | 105% | > 100 µM | > 100 µM | > 100 µM | > 100 µM | 78.9% | > 100 µM | 79.4% | 81.9% | 102% | 65.8% | > 100 µM | 102% | 88.2% | 79.9% | 103% | > 100 µM | > 100 µM | > 100 µM | IC50 (HT-29 [21]): > 100 µM; IC50 (CNE [22]): > 100 µM; IC50 (MDA-MB-231 [23]): > 100 µM; IC50 (MCF-10A): > 100 µM; IC50 (ASPC1 [24]): > 100 µM; viability at 100 µM (BXPC-3 [25]): 104%; viability at 100 µM (MCF7 [26]): 55.5%; viability at 100 µM (HT-29 [27]): 89.6%; viability at 100 µM (A549 [28]): 77.4%; IC50 (BXPC-3 [29]): > 100 µM; IC50 (MCF7 [30]): > 100 µM; viability at 100 µM (SK-BR-3 [31]): 98.9%; viability at 100 µM (SH-SY5Y [32]): 86.1%; viability at 100 µM (ASPC1 [33]): 108%; viability at 100 µM (NCI-H1299 [34]): 89.8%; IC50 (A549 [35]): > 100 µM; IC50 (MRC5): > 100 µM; viability at 100 µM (SUNE1 [36]): 106%; viability at 100 µM (MDA-MB-468 [37]): 106%; IC50 (MDA-MB-468 [38]): > 100 µM
